The values below come from ChEMBL document CHEMBL4196125, “Identification of N-Benzyl 3,5-Dinitrobenzamides Derived from PBTZ169 as Antitubercular Agents” (ACS Med Chem Lett, 2018).

Molecules are shown by their SMILES. In brackets after ≈: the same amount, converted by molar mass. Where only a bound is given, the exact number is not on record here.

As a reminder, the MIC is the lowest concentration found to suppress growth. Lower therefore signals greater potency. For orientation: MIC90 means the lowest concentration that inhibits either 90% of growth or 90% of the strains tested, depending on the study. High values mean lower susceptibility, low ones higher susceptibility.

Type in all cases: functional
In assay [1] the test system is Mycobacterium tuberculosis. In words: Antitubercular activity against Mycobacterium tuberculosis H37Rv harboring GFP measured after 7 days by fluorescence assay. Particulars: 168 h.
Assay [2] concerns Mycobacterium tuberculosis. In words: Antitubercular activity against isoniazid/rifampicin-resistant Mycobacterium tuberculosis 12525 clinical isolate measured after 7 days by microplate alamar blue assay. Particulars: Mycobacterium tuberculosis, 12525, 168 h. (In general: Resazurin is reduced to fluorescent resorufin, in cell work by metabolically active cells.)
Assay [3] concerns Mycobacterium tuberculosis. In words: Antitubercular activity against isoniazid/rifampicin-resistant Mycobacterium tuberculosis 14231 clinical isolate measured after 7 days by microplate alamar blue assay. Particulars: Mycobacterium tuberculosis, 14231, 168 h.

`COc1ccc(OCCNC(=O)c2cc([N+](=O)[O-])cc([N+](=O)[O-])c2)cc1`: in assay [1], the MIC turned out to be 0.075 µg/mL (≈ 0.208 µM).
As to `O=C(NCc1ccc(N2CC3CCCCC3C2)cc1)c1cc([N+](=O)[O-])cc([N+](=O)[O-])c1` (centres undefined), the MIC90 is 0.031 µg/mL (≈ 0.073 µM) in assay [2] and 0.125 µg/mL (≈ 0.294 µM) in assay [3].
For `O=C(NCc1ccc(N2CCSCC2)cc1)c1cc([N+](=O)[O-])cc([N+](=O)[O-])c1`, in that order: 0.017 µg/mL (≈ 0.0422 µM) and 0.085 µg/mL (≈ 0.211 µM).
Take `O=C(NCc1ccc(N2CCC(c3ccc(OC(F)(F)F)cc3)CC2)cc1)c1cc([N+](=O)[O-])cc([N+](=O)[O-])c1`: the MIC90 in assay [2] is 0.21 µg/mL (≈ 0.386 µM); in assay [3], 0.474 µg/mL (≈ 0.871 µM).
The corresponding values for `O=C(NCc1ccc(N2CCN(c3ccc(F)cc3)CC2)cc1)c1cc([N+](=O)[O-])cc([N+](=O)[O-])c1` are 0.047 µg/mL (≈ 0.098 µM) and 0.077 µg/mL (≈ 0.161 µM).
Regarding `O=C(NCc1ccc(N2CCC(C(F)(F)F)CC2)cc1)c1cc([N+](=O)[O-])cc([N+](=O)[O-])c1`, the MIC90 was less than 0.016 µg/mL in assay [2] and 0.075 µg/mL (≈ 0.166 µM) in assay [3].
`O=C(NCc1ccc(N2CCC(C(F)(F)F)CC2)cc1)c1cc([N+](=O)[O-])cc(C(F)(F)F)c1`: the MIC90 was 0.138 µg/mL (≈ 0.29 µM) in assay [2] and more than 40 µg/mL in assay [3].
Turning to `NNC(=O)c1ccncc1` [ISONIAZID], the MIC90 in assay [2] and in assay [3] was more than 40 µg/mL in each case.
Turning to `O=c1nc(N2CCN(CC3CCCCC3)CC2)sc2c([N+](=O)[O-])cc(C(F)(F)F)cc12` [MACOZINONE], the MIC90 in assay [2] amounted to 0.116 µg/mL (≈ 0.254 µM); in assay [3], 0.232 µg/mL (≈ 0.508 µM).
For the molecule `CO[C@H]1/C=C/O[C@@]2(C)Oc3c(C)c(O)c4c(O)c(c(/C=N/N5CCN(C)CC5)c(O)c4c3C2=O)NC(=O)/C(C)=C\C=C\[C@H](C)[C@H](O)[C@@H](C)[C@@H](O)[C@@H](C)[C@H](OC(C)=O)[C@@H]1C` [RIFAMPIN], the MIC90 in assay [2] and in assay [3] was more than 40 µg/mL throughout.
